According to patent EP2857388A1, “Azoles containing sulfone” (Grünenthal GmbH, priority 2013, dated 2015):

These compounds were tested against T1, human B1R (Homo sapiens, UniProt P46663) (assay: Functional assay at bradykinin receptor 1 (B1R): Ca2+ fluorescence (Fluo-4) in FLIPR/Novostar, antagonist mode). Details: test substance 10 µM; CHO K1 cells stably transfected with human B1R gene (hB1R-Zellen); agonist Lys-Des-Arg9-Bradykinin at EC80; % inhibition relative to maximal achievable inhibition; read-out: % Inhibierung (human B1R) bei 10 µM.
T1 construct: expressed in transfected cells; host or cells: CHO K1 cells (Chinese Hamster Ovary), stably transfected
T1 sequence (P46663 1-353): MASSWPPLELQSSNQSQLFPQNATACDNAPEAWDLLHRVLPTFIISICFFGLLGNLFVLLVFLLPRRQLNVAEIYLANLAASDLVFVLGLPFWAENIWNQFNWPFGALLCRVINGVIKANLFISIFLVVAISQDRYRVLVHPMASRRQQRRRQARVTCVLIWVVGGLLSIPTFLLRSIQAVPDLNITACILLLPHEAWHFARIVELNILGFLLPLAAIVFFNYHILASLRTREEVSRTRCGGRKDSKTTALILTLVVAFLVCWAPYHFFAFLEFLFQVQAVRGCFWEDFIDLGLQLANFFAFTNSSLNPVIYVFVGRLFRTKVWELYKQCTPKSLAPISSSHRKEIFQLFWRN
Type: cell-based
Outline: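 CHO K1 cells stably expressing human B1R were loaded with Fluo-4 and preincubated 6–20 min with test compound before Lys-Des-Arg9-bradykinin at its EC80. Peak fluorescence (ex 488/em 540 nm) gave % inhibition versus maximal inhibition; IC50 from several concentrations, n=2 or 3.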

inhibition at 10 µM	Compound
92%	COc1cc(C)c(S(=O)(=O)Cc2cn(CC(=O)NC3CCN(C(C)=O)CC3(C)C)nn2)c(C)c1 (stereo not drawn) [CC-161, N-(1-Acetyl-3,3-dimethyl-piperidin-4-yl)-2-[4-[[(4-methoxy-2,6-dimethyl-phenyl)sulfonyl]-methyl]-1H-[1,2,3]triazol-1-yl]-acetamid]
100%	COc1cc(C)c(S(=O)(=O)Cc2cn(CC(=O)NC3CCC(N4CCN(C)CC4)CC3(C)C)nn2)c(C)c1 (stereo not drawn) [CC-162, N-[2,2-Dimethyl-4-(4-methyl-piperazin-1-yl)-cyclohexyl]-2-[4-[[(4-methoxy-2,6-dimethylphenyl)sulfonyl]-methyl]-1H-[1,2,3]triazol-1-yl]-acetamid]
99%	COc1cc(C)c(S(=O)(=O)Cc2cc(C)n(CC(=O)NC3CCC(N4CCN(C)CC4)CC3(C)C)n2)c(C)c1 (stereo not drawn) [CC-163, N-[2,2-Dimethyl-4-(4-methyl-piperazin-1-yl)-cyclohexyl]-2-[3-[[(4-methoxy-2,6-dimethyl-phenyl)sulfonyl]-methyl]-5-methyl-1H-pyrazol-1-yl]-acetamid]
100%	COc1cc(C)c(S(=O)(=O)Cc2c(C)nn(CC(=O)NC3CCC(N4CCCC4)CC3)c2C)c(C)c1 (stereo not drawn) [CC-164, 2-[4-[[(4-Methoxy-2,6-dimethyl-phenyl)sulfonyl]-methyl]-3,5-dimethyl-1H-pyrazol-1-yl]-N-(4-pyrrolidin-1-yl-cyclohexyl)-acetamid]
100%	COCCN1CCC(NC(=O)Cn2nc(C)c(CS(=O)(=O)c3c(C)cc(OC)cc3C)c2C)C(C)(C)C1 (stereo not drawn) [CC-165, 2-[4-[[(4-Methoxy-2,6-dimethyl-phenyl)sulfonyl]-methyl]-3,5-dimethyl-1H-pyrazol-1-yl]-N-[1-(2-methoxy-ethyl)-3,3-dimethyl-piperidin-4-yl]-acetamid]
100%	COc1cc(C)c(S(=O)(=O)Cc2c(C)nn(CC(=O)NC3CCC(N4CCN(C)CC4)CC3(C)C)c2C)c(C)c1 (stereo not drawn) [CC-166, N-[2,2-D imethyl-4-(4-methyl-piperazin-1-yl)-cyclohexyl]-2-[4-[[(4-methoxy-2,6-dimethyl-phenyl)sulfonyl]-methyl]-3,5-dimethyl-1 H-pyrazol-1-yl]-acetamid]
100%	COc1cc(C)c(S(=O)(=O)Cc2cn(CC(=O)NC3CCC(N4CCCC4)CC3)nn2)c(C)c1 (stereo not drawn) [CC-167, 2-[4-[[(4-Methoxy-2,6-dimethyl-phenyl)sulfonyl]-methyl]-1H-[1,2,3]triazol-1-yl]-N-(4-pyrrolidin-1-yl-cyclohexyl)-acetamid]
100%	COc1cc(C)c(S(=O)(=O)Cc2c(C)nn(CC(=O)NC3CCC(N(C)C)CC3)c2C)c(C)c1 (stereo not drawn) [CC-168, N-(4-Dimethylamino-cyclohexyl)-2-[4-[[(4-methoxy-2,6-dimethyl-phenyl)sulfonyl]-methyl]-3,5-dimethyl-1 H-pyrazol-1-yl]-acetamid]
100%	COc1cc(C)c(S(=O)(=O)Cc2cn(CC(=O)NC3CCC(N(C)C)CC3)nn2)c(C)c1 (stereo not drawn) [CC-169, N-(4-Dimethylamino-cyclohexyl)-2-[4-[[(4-methoxy-2,6-dimethyl-phenyl)sulfonyl]-methyl]-1H-[1,2,3]triazol-1-yl]-acetamid]
99%	COc1cc(C)c(S(=O)(=O)Cc2c(C)nn(CC(=O)NC3CCC(N4CCCC4)CC3(C)C)c2C)c(C)c1 (stereo not drawn) [CC-170, N-(2,2-Dimethyl-4-pyrrolidin-1-yl-cyclohexyl)-2-[4-[[(4-methoxy-2,6-dimethyl-phenyl)sulfonyl]-methyl]-3,5-dimethyl-1H-pyrazol-1-yl]-acetamid]
71%	COc1cc(C)c(S(=O)(=O)Cc2cc(C)n(CC(=O)NC3CCNCC3(C)C)n2)c(C)c1 (stereo not drawn) [CC-171, N-(3,3-Dimethyl-piperidin-4-yl)-2-[3-[[(4-methoxy-2,6-dimethyl-phenyl)sulfonyl]-methyl]-5-methyl-1 H-pyrazol-1-yl]-acetamid]
100%	COc1cc(C)c(S(=O)(=O)Cc2c(C)nn(CC(=O)NC3CCC(c4ccncc4)CC3(C)C)c2C)c(C)c1 (stereo not drawn) [CC-172, N-(2,2-Dimethyl-4-pyridin-4-yl-cyclohexyl)-2-[4-[[(4-methoxy-2,6-dimethyl-phenyl)sulfonyl]-methyl]-3,5-dimethyl-1 H-pyrazol-1-yl]-acetamid]
85%	COc1cc(C)c(S(=O)(=O)Cc2c(C)nn(CC(=O)NC3CCNCC3)c2C)c(C)c1 [CC-173, 2-[4-[[(4-Methoxy-2,6-dimethyl-phenyl)sulfonyl]-methyl]-3,5-dimethyl-1H-pyrazol-1-yl]-N-piperidin-4-yl-acetamid]
100%	COc1cc(C)c(S(=O)(=O)Cc2c(C)nn(CC(=O)NC3CCC(NC4CC4)CC3(C)C)c2C)c(C)c1 (stereo not drawn) [CC-174, N-[4-(Cyclopropylamino)-2,2-dimethyl-cyclohexyl]-2-[4-([(4-methoxy-2,6-dimethyl-phenyl)sulfonyl]-methyl]-3,5-dimethyl-1 H-pyrazol-1-yl]-acetamid]
100%	COc1cc(C)c(S(=O)(=O)Cc2cn(CC(=O)NC3CCC(NC4CC4)CC3(C)C)nn2)c(C)c1 (stereo not drawn) [CC-175, N-[4-(Cyclopropylamino)-2,2-dimethyl-cyclohexyl]-2-[4-[[(4-methoxy-2,6-dimethyl-phenyl)sulfonyl]-methyl]-1 H-[1,2,3]triazol-1-yl]-acetamid]
100%	COc1cc(C)c(S(=O)(=O)Cc2cn(CC(=O)NC3CCNCC3(C)C)nn2)c(C)c1 (stereo not drawn) [CC-176, N-(3,3-Dimethyl-piperidin-4-yl)-2-[4-[[(4-methoxy-2,6-dimethyl-phenyl)sulfonyl]-methyl]-1 H-[1,2,3]triazol-1-yl]-acetamid]
99%	COc1cc(C)c(S(=O)(=O)Cc2cc(C)n(CC(=O)NC3CCC(NC4CC4)CC3(C)C)n2)c(C)c1 (stereo not drawn) [CC-177, N-[4-(Cyclopropylamino)-2,2-dimethyl-cyclohexyl]-2-[3-[[(4-methoxy-2,6-dimethyl-phenyl)sulfonyl]-methyl]-5-methyl-1 H-pyrazol-1-yl]-acetamid]
100%	COc1cc(C)c(S(=O)(=O)Cc2cn(CC(=O)NC3CCC(c4ccncc4)CC3(C)C)nn2)c(C)c1 (stereo not drawn) [CC-178, N-(2,2-Dimethyl-4-pyridin-4-yl-cyclohexyl)-2-[4-[[(4-methoxy-2,6-dimethyl-phenyl)sulfonyl]-methyl]-1 H-[1,2,3]triazol-1-yl]-acetamid]
44%	COc1cc(C)c(S(=O)(=O)Cc2c(C)nn(CC(=O)NC3CCN(C(C)=O)CC3(C)C)c2C)c(C)c1 (stereo not drawn) [CC-179, N-(1-Acetyl-3,3-dimethyl-piperidin-4-yl)-2-[4-[[(4-methoxy-2,6-dimethyl-phenyl)sulfonyl]-methyl]-3,5-dimethyl-1 H-pyrazol-1-yl]-acetamid]
98%	COc1cc(C)c(S(=O)(=O)Cc2c(C)nn(CC(=O)NC3CCNCC3(C)C)c2C)c(C)c1 (stereo not drawn) [CC-180, N-(3,3-Dimethyl-piperidin-4-yl)-2-[4-[[(4-methoxy-2,6-dimethyl-phenyl)sulfonyl]-methyl]-3,5-dimethyl-1 H-pyrazol-1-yl]-acetamid]
99%	COc1cc(C)c(S(=O)(=O)Cc2cn(CC(=O)N(C)C3CCNCC3(C)C)nn2)c(C)c1 (stereo not drawn) [CC-181, N-(3,3-Dimethyl-piperidin-4-yl)-2-[4-[[(4-methoxy-2,6-dimethyl-phenyl)sulfonyl]-methyl]-1 H-[1,2,3]-triazol-1-yl]-N-methyl-acetamid]
